Experimental data as given in US9045445B2, “Glycine transporter-1 inhibitors, methods of making them, and uses thereof” (Albany Molecular Research, Inc., priority 2010, dated 2015).
pIC50: −log10 of the molar value. Structures can show the parent of a compound that is named as a salt. Where two headings read alike, the source gives them in different places.

What was measured:
[1] = biological target: T1, glycine transporter-1 (GlyT-1) (Homo sapiens, UniProt P48067); assay: [14C]glycine uptake assay in JAR cells endogenously expressing GlyT-1 (scintillation proximity); type: cell-based; conditions: JAR cells, [14C]glycine 5 μM, 3 hour incubation; read-out: GlyT-1 IC50
T1 construct: JAR cells (ATCC#HTB-144), which endogenously express GlyT-1; host or cells: JAR human choriocarcinoma cells
T1 sequence (P48067 1-706): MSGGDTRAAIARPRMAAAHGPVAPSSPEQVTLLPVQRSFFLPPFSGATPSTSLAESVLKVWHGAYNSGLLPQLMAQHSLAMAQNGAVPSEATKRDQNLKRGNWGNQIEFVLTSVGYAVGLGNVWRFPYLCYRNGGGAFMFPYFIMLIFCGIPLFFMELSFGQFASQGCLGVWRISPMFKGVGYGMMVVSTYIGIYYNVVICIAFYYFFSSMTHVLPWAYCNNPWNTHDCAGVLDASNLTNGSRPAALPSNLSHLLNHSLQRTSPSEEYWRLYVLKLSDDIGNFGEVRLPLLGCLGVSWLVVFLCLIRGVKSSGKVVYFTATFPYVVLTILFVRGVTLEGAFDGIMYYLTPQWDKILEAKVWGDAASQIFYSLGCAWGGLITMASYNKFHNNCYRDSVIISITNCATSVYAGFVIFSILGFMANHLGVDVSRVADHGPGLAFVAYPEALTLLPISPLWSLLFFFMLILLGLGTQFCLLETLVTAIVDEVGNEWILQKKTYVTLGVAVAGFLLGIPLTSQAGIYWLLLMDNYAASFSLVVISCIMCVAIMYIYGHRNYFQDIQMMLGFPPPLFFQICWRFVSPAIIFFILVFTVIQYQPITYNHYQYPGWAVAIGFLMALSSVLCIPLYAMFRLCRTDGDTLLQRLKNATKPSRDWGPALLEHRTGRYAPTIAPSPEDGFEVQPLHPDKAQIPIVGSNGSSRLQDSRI
Summary of the method: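 IC50 comes from a four-parameter fit of nine-point, duplicate curves measuring inhibition of 5 μM [14C]glycine uptake, read by scintillation proximity after 3 h at 37 °C. Cells are human JAR, which express GlyT-1 endogenously, given 10 min compound pre-treatment in pH 7.4 buffer with 5 mM alanine and 0.75% DMSO.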

[2] = biological target: T2, glycine transporter-2 (GlyT-2) (Homo sapiens, UniProt Q9Y345); assay: [14C]glycine uptake assay in HEK-GlyT-2 transfected cells; type: cell-based; conditions: HEK-GlyT-2 cells
T2 construct: expressed in transfected cells
T2 sequence (Q9Y345 1-797): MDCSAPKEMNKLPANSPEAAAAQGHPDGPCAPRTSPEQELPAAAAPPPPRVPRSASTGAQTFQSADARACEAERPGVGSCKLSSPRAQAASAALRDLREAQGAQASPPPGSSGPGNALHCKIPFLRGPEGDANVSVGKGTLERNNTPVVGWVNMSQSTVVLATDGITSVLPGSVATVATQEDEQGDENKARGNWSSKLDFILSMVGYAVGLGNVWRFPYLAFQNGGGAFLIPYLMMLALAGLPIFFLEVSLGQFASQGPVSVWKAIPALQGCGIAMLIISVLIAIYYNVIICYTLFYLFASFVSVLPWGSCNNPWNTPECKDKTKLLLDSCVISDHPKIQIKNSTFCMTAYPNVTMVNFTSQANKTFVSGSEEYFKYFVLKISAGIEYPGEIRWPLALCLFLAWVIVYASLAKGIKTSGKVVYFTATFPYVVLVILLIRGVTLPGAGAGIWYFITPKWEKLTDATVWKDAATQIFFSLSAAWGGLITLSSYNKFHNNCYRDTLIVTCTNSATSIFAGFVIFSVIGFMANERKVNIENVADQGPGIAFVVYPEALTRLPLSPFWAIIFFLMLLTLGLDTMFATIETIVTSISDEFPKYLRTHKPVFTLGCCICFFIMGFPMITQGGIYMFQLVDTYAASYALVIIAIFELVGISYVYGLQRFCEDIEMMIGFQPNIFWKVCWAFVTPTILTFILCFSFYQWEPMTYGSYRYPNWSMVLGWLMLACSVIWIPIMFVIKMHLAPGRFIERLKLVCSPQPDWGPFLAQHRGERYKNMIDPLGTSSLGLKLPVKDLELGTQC

[3] = system: cerebrospinal fluid (CSF) glycine levels; assay: CSF-glycine assay after oral administration; type: in vivo; conditions: rats
Protocol: This study measured cerebrospinal fluid (CSF) glycine levels after oral administration of test compound. […] After the specified pretreatment time, the rats were euthanized by CO2 asphyxiation and a hypodermic needle was inserted into the cisterna magna to withdraw 50-100 μl of CSF. The CSF was diluted with deuterated-glycine as an internal standard glycine was quantified by LC/MS/MS.

[4] = Rattus norvegicus, po, 2 h, pretreatment 120 mins, read-out: % CSF Glycine Increase versus Vehicle Control
[5] = Rattus norvegicus, po, 2 h, dose 10 mg/kg, pretreatment 120 mins, read-out: % CSF Glycine Increase versus Vehicle Control
[6] = Rattus norvegicus, po, 6 h, dose 10 mg/kg, pretreatment 360 mins, read-out: % CSF Glycine Increase versus Vehicle Control

| Molecule | melting point | pIC50 [1] | pIC50 [2] | change in vivo at 10 mg/kg [3, 5] | also measured |
| --- | --- | --- | --- | --- | --- |
| CC(=O)CS(=O)(=O)N1CCN(C2(CNC(=O)c3ccc(C(F)(F)F)cc3Cl)CCC(F)(F)CC2)CC1 (as salt: hydrochloride) [compound 280, 2-Chloro-N-((4,4-difluoro-1-(4-(2-oxopropylsulfonyl)piper-azin-1-yl)cyclohexyl)methyl)-4-(trifluoromethyl) benzamide Hydrochloride] | 65 to 67 °C | – | – | – | – |
| CC(NC(=O)c1ccc(F)cc1Cl)C1(N2CCN(S(=O)(=O)c3cn(C)nn3)CC2)CCC(F)(F)CC1 (centres unmarked) [compound 219, 2-Chloro-N-(1-(4,4-difluoro-1-(4-(1-methyl-1H-1,2,3-triazol-4-ylsulfonyl)piperazin-1-yl)cyclohexyl)ethyl)-4-fluorobenzamide Hydrochloride] | – | 8.52 | < 4.12 | 310% | change in vivo at 3 mg/kg [3, 4]: 181% |
| Cn1cc(S(=O)(=O)N2CCN(C3(CNC(=O)c4ccc(C(F)(F)F)cc4C(F)(F)F)CCC(F)(F)CC3)CC2)nn1 [compound 221, N-((4,4-Difluoro-1-(4-(1-methyl-1H-1,2,3-triazol-4-ylsulfonyl)piperazin-1-yl)cyclohexyl)methyl)-2,4-bis(trifluoromethyl) benzamide Hydrochloride] | – | 9.00 | < 4.12 | 226% | change in vivo at 10 mg/kg [3, 6]: 241% |
| CC(NC(=O)c1ccc(C(F)(F)F)cc1C(F)(F)F)C1(N2CCN(S(=O)(=O)c3cn(C)nn3)CC2)CCC(F)(F)CC1 (centres unmarked) [compound 226, N-(1-(4,4-Difluoro-1-(4-(1-methyl-1H-1,2,3-triazol-4-ylsulfonyl)piperazin-1-yl)cyclohexyl)ethyl)-2,4-bis(trifluoromethyl) benzamide Hydrochloride] | – | 9.00 | < 4.12 | 344% | change in vivo at 3 mg/kg [3, 4]: 243%; change in vivo at 3 mg/kg ([3]; Rattus norvegicus, po, 6 h, pretreatment 360 mins, read-out: % CSF Glycine Increase versus Vehicle Control): 227%; change in vivo at 10 mg/kg [3, 6]: 339% |
| Cl.Cn1cc(S(=O)(=O)N2CCN(C3(CNC(=O)c4ccc(C(F)(F)F)cc4Cl)CCOCC3)CC2)nn1 [compound 277, 2-Chloro-N-((4-(4-(1-methyl-1H-1,2,3-triazol-4-ylsulfonyl)piperazin-1-yl)tetrahydro-2H-pyran-4-yl)methyl)-4-(trifluoromethyl)benzamide Hydrochloride] | 147 °C | 8.10 | – | – | – |
| Cl.Cn1cnc(S(=O)(=O)N2CCN(C3(CNC(=O)c4ccc(C(F)(F)F)cc4Cl)CCC(F)(F)CC3)CC2)n1 [compound 281, 2-Chloro-N-((4,4-difluoro-1-(4-(1-methyl-1H-1,2,4-triazol-3-ylsulfonyl)piperazin-1-yl)cyclohexyl)methyl)-4-(trifluoromethyl)benzamide Hydrochloride] | 180 to 185 °C | 6.55 | – | – | – |
| N-((4,4-Difluoro-1-(4- (propylsulfonyl)piperazin- 1-yl)cyclohexyl)methyl)- 2,4-bis(trifluoromethyl) benzamide Hydrochloride [compound 246] | – | 8.15 | < 4.12 | – | % CSF Glycine Increase versus Vehicle Control ([3]; dose 10 mg/kg, pretreatment 120 mins): 191%; % CSF Glycine Increase versus Vehicle Control ([3]; dose 10 mg/kg, pretreatment 360 mins): 166%; % CSF Glycine Increase versus Vehicle Control ([3]; dose 30 mg/kg, pretreatment 120 mins): 205%; % CSF Glycine Increase versus Vehicle Control ([3]; dose 30 mg/kg, pretreatment 360 mins): 244% |

Second part, led by results:

| melting point | pIC50 [1] | pIC50 [2] | Molecule | change in vivo at 10 mg/kg [3, 5] | also measured |
| --- | --- | --- | --- | --- | --- |
| 145 °C | – | – | Cn1cc(S(=O)(=O)N2CCN(C3(CNC(=O)c4ccc(C(F)(F)F)cc4C(F)(F)F)CCOCC3)CC2)nn1 (as salt: hydrochloride) [compound 276, N-((4-(4-(1-Methyl-1H-1,2,3-triazol-4-ylsulfonyl)piperazin-1-yl)tetrahydro-2H-pyran-4-yl)methyl)-2,4-bis(trifluoromethyl) benzamide Hydrochloride] | – | – |
| 80 to 82 °C | 7.62 | – | CC(O)CS(=O)(=O)N1CCN(C2(CNC(=O)c3ccc(C(F)(F)F)cc3Cl)CCC(F)(F)CC2)CC1.Cl (single isomer, unassigned; enantiomer a) [compound 278, (Enantiomer A)-2-Chloro-N-((4,4-difluoro-1-(4-(2-hydroxypropylsulfonyl)piperazin-1-yl)cyclohexyl)methyl)-4-(trifluoromethyl) benzamide Hydrochloride] | – | – |
| – | 9.00 | < 4.12 | CC(NC(=O)c1ccc(C(F)(F)F)cc1Cl)C1(N2CCN(S(=O)(=O)c3cn(C)nn3)CC2)CCC(F)(F)CC1 (centres unmarked) [compound 224, 2-Chloro-N-(1-(4,4-difluoro-1-(4-(1-methyl-1H-1,2,3-triazol-4-ylsulfonyl)piperazin-1-yl)cyclohexyl)ethyl)-4-(trifluoromethyl)benzamide Hydrochloride] | 347% | change in vivo at 3 mg/kg [3, 4]: 186% |
| – | 7.48 | < 4.12 | CC(O)CS(=O)(=O)N1CCN(C2(CNC(=O)c3ccc(C(F)(F)F)cc3Cl)CCC(F)(F)CC2)CC1 (centres unmarked) [compound 252, 2-Chloro-N-((4,4-difluoro-1-(4-(2-hydroxypropylsulfonyl)piperazin-1-yl)cyclohexyl)methyl)-4-(trifluoromethyl)benzamide Hydrochloride] | – | change in vivo at 30 mg/kg ([3]; Rattus norvegicus, po, 2 h, dose 30 mg/kg, pretreatment 120 mins, read-out: % CSF Glycine Increase versus Vehicle Control): 207% |
